Columns and labels:
Assay type in all cases: cell-based, human
ARPE-19 cells [1] = experiment: qPCR of profibrotic gene expression in ARPE-19 cells ±TGFβ
Procedure: Cell culture: The human RPE cell line ARPE-19 was purchased from ATCC and cultured in Dulbecco's Modified Eagle Medium/Nutrient Mixture F-12 (DMEM/F-12) supplemented with 2.50 mM L-Glutamine, 15 mM HEPES Buffer, 10% fetal bovine serum (FBS), and 1% Antibiotic-Antimycotic (Gibco), unless otherwise noted. Cells were maintained in a humidified 37° C., 5% CO2 incubator. All experiments were performed with cells at passage 3-6. Chemicals and Reagents: dimethyl sulfoxide (DMSO) was purchased from Fisher Scientific and used to solubilize fenoldopam and SCH 39166. 2-mercaptoethanol was purchased from Bio-Rad Laboratories and added to RLT buffer prior to RNA isolation, as per Qiagen instructions. Fenoldopam and SCH 39166 were purchased from Cayman Chemical Company. TGFβ was purchased from InvivoGen. Fenoldopam, like a majority of […], has a characteristically short half-life. To take this into account we changed media daily to assess the efficacy of fenoldopam to inhibit fibrotic activation in vitro. RNA Isolation/qPCR Analysis: ARPE-19 cells were plated into 12 well plates (100,000 cells/well) and allowed to attach. Media was removed and replaced with the media specified in the “Cell Culture” section above, minus FBS. Cells were treated for 24 hours ±TGFβ (10 ng/mL), 10 μM fenoldopam, and 3 μM SCH 39166. RNA was isolated using the RNeasy Plus Mini Kit (Qiagen) and the manufacturer's protocol. Isolated RNA was converted to cDNA using the SuperScript VILO cDNA Synthesis Kit (Invitrogen) and the PTC-200 Peltier Thermal Cycler (MJ Research). Quantitative PCR (qPCR) was performed using FastStart Essential DNA Green Master (Roche) and LightCycler 96 (Roche).

ARPE-19 cells [2] = experiment: TGFβ-induced EMT in cultured RPE cells (morphology, qPCR of mesenchymal/profibrotic genes); conditions: ARPE-19, 5 ng/ml TGF-β1, 24 h, 0% FBS; 1 μM CTC-6 or 10 μM MS-9
Procedure: Cell culture: ARPE-19 cells were purchased from ATCC (Manassas, VA, USA) were cultured in Eagle's minimal essential medium (EMEM) containing 10% fetal bovine serum (FBS) and antibiotic-antimycotic (Thermo Fisher Scientific) unless otherwise noted.
qPCR analysis: ARPE-19 cells were plated on tissue culture dishes (Thermo Fisher Scientific, 60×15 mm) in EMEM containing 10% FBS and allowed to attach and grow for 24 h. Cells were stimulated with 5 ng/ml TGF-β1 and 10 μM MS-9 or 1 μM CTC-6 in EMEM containing 0% FBS for 24 h prior to RNA isolation using the RNeasy Plus Mini Kit (Qiagen, Hilden, Germany) according to the manufacturer's instructions. Isolated RNA (500 ng) was then used to synthesize cDNA using SuperScript VILO (Invitrogen, Carlsbad, CA, USA). Quantitative PCR (qPCR) was performed using FastStart Essential DNA Green Master and analyzed with LightCycler 96 (Roche, Basel, Switzerland). Data are expressed as a fold change by ΔΔCt relative to the level of the GAPDH housekeeping gene, and normalized to control.
As expected, TGFβ stimulated morphological changes consistent with EMT (FIG. 2A) and enhanced expression of ECM genes: COL1A1 and COL3A1, connective tissue growth factor (CTGF) and alpha-smooth muscle actin (ACTA2) (FIG. 2B).

ARPE-19 cells [3] = experiment: LIVE/DEAD assay; conditions: ARPE-19, ±2% FBS, 10 μM fenoldopam, 4 days
Procedure: (§1) Cell culture: The human RPE cell line ARPE-19 was purchased from ATCC and cultured in Dulbecco's Modified Eagle Medium/Nutrient Mixture F-12 (DMEM/F-12) supplemented with 2.50 mM L-Glutamine, 15 mM HEPES Buffer, 10% fetal bovine serum (FBS), and 1% Antibiotic-Antimycotic (Gibco), unless otherwise noted. Cells were maintained in a humidified 37° C., 5% CO2 incubator. All experiments were performed with cells at passage 3-6. Proliferation and Live/Dead Assays: ARPE-19 cells were plated into 96-well plates (1,000 cells/well) and allowed to attach. Media was removed and replaced with the media specified in the “Cell Culture” section above, with reduced FBS. Cells were treated for four days ±2% FBS, and 10 μM fenoldopam, replacing media conditions every 24 hours for wells treated with fenoldopam. After four days, CellTiter-Fluor™ (Promega) was added to each well according to the manufacturer and measured on a Flexstation 3 (Molecular Devices) plate reader for the proliferation assay. For the LIVE/DEAD™ assay, each component of the kit (Thermo Fisher Scientific) was added, then cells were incubated for 30 minutes. Fluorescent images were then taken using a Cytation 5 imaging reader (BioTek) and quantified for cytotoxicity/viability.

ARPE-19 cells [4] = experiment: Wound healing (wound migration) assay; conditions: ARPE-19, ±TGFβ 10 ng/mL, 10 μM fenoldopam, 0-72 hours, media changed every 24 hours
Procedure: Cell culture: The human RPE cell line ARPE-19 was purchased from ATCC and cultured in Dulbecco's Modified Eagle Medium/Nutrient Mixture F-12 (DMEM/F-12) supplemented with 2.50 mM L-Glutamine, 15 mM HEPES Buffer, 10% fetal bovine serum (FBS), and 1% Antibiotic-Antimycotic (Gibco), unless otherwise noted. Cells were maintained in a humidified 37° C., 5% CO2 incubator. All experiments were performed with cells at passage 3-6. Wound Healing Assay: ARPE-19 cells were plated confluent into a 12-well plate (300,000 cells/well) and allowed to attach. Cells were exposed to a single scratch made with a p200 pipette tip. Media was removed and replaced with the media specified in the “Cell Culture” section above, without FBS. Cells were treated ±TGFβ (10 ng/mL), 10 μM fenoldopam replacing media conditions every 24 hours for wells treated with fenoldopam. Cells were imaged after treatment for 0, 24, 48, and 72 hours. Cells were imaged with an inverted phase-contract microscope and wound area was measured using ImageJ software as previously described.

ARPE-19 cells [5] = experiment: Fibronectin deposition (immunofluorescence); conditions: ARPE-19, ±TGFβ 10 ng/mL, 10 μM fenoldopam, 4 days
Procedure: Cell culture: The human RPE cell line ARPE-19 was purchased from ATCC and cultured in Dulbecco's Modified Eagle Medium/Nutrient Mixture F-12 (DMEM/F-12) supplemented with 2.50 mM L-Glutamine, 15 mM HEPES Buffer, 10% fetal bovine serum (FBS), and 1% Antibiotic-Antimycotic (Gibco), unless otherwise noted. Cells were maintained in a humidified 37° C., 5% CO2 incubator. All experiments were performed with cells at passage 3-6. Fibronectin Deposition: ARPE-19 cells were plated into 96-well plates (10,000 cells/well) and allowed to attach. Media was removed and replaced with the media specified in the “Cell Culture” section above, without FBS. Cells were treated for four days ±TGFβ (10 ng/mL), 10 μM fenoldopam, replacing media conditions every 24 hours for wells treated with fenoldopam. Cells were fixed with 10% neutral buffered formalin (Sigma-Aldrich) for 15 minutes. Cells were permeabilized with 0.25% Triton X-100 (Sigma-Aldrich) and blocked with 1% BSA for 1 hour. Cells were incubated with mouse monoclonal IgG3 primary antibodies against fibronectin (Santa Cruz Biotechnology), which were diluted 1:400 in 0.25% Triton X-100 (Sigma-Aldrich) with 1% BSA. Cells were incubated with primary antibodies either in 4° C. overnight or at room temperature for 2 hours. […] Immunofluorescence was measured using a Cytation 5 imaging reader (BioTek).

ARPE-19 cells [6] = experiment: Proliferation assay (CellTiter-Fluor); conditions: ARPE-19, ±2% FBS, 10 μM fenoldopam, 4 days
Procedure: as §1

**Q.** Which “effect of D5 antagonist alone in the presence of TGFβ on profibrotic gene expression” value (ARPE-19 cells [1]; ARPE-19, TGFβ 10 ng/mL + 3 μM SCH 39166, 24 hours) does the source give for CN1CCc2cc(Cl)c(O)cc2[C@H]2c3ccccc3CC[C@@H]21 [SCH 39166] here?
**A.** no effect

**Q.** And the “effect of D5 antagonist on the antifibrotic effects of fenoldopam (profibrotic gene expression)” value (ARPE-19 cells [1]; ARPE-19, TGFβ 10 ng/mL + 10 μM fenoldopam + 3 μM SCH 39166, 24 hours)?
**A.** surmount the antifibrotic effects of fenoldopam

**Q.** Which “markers of EMT (morphology; COL1A1, COL3A1, CTGF, ACTA2 expression)” value (ARPE-19 cells [2]) does the source give for NCC1OC(c2ccncc2)Cc2c1ccc(O)c2O (centres unmarked) [CTC-6] here?
**A.** blocked markers of EMT

**Q.** Which results are given for Oc1ccc(C2CNCCc3c2cc(O)c(O)c3Cl)cc1 (centres unmarked) [fenoldopam]?
**A.** antifibrotic response in live/dead assay (ARPE-19 cells [3]): robust antifibrotic response; expression of COL1A1, ACTA2, and FN1 compared to TGFβ exclusively (ARPE-19 cells [1]; ARPE-19, TGFβ 10 ng/mL, 10 μM fenoldopam, 24 hours): significant decrease; antifibrotic response in wound migration assay (ARPE-19 cells [4]): robust antifibrotic response; antifibrotic response in fibronectin deposition assay (ARPE-19 cells [5]): robust antifibrotic response; antifibrotic response in proliferation assay (ARPE-19 cells [6]): robust antifibrotic response

Source: patent US20240043396A1, “METHODS OF TREATING OCULAR FIBROTIC PATHOLOGIES” (Mayo Foundation for Medical Education and Research, priority 2021, published 2024)
